Earlier results, collected in patent publication US10638990B2, “Sunscreen compositions with improved water resistance of UVA sunscreen active agents” (Edgewell Personal Care Brands, LLC, priority 2015, dated 2020).

Settings: calculated partition coefficient between octanol and water

First: CCOCCOC(=O)/C=C/c1ccc(OC)cc1 [Cinoxate, Ethoxyethyl methoxy cinnamate]
Second: CCOC(=O)c1ccc(N(CC(C)O)CC(C)O)cc1 (stereo not drawn) [Ethyl dihydroxypropyl PABA, Ethyl-4-bis(2-hydroxypropyl-aminobenzoate)]
The “Log P @25° C.” value of the first is lower: 2.55 for the first, 2.84 for the second.

In the case of CC1CCC(C(C)C)C(OC(=O)c2ccccc2N)C1 (stereo not drawn) [Menthyl anthranilate, Menthyl-O-aminobenzoate], the “Log P @25° C.” value is listed as 5.05.
